Data from patent US20180194762A1 (Pharmacyclics LLC, priority 2017, published 2018).
Read-outs that look alike come from different tables or passages of the source.

Experiments:
Type in all cases: biochemical
TEC = biological target: T1, TEC (Homo sapiens, UniProt P42680); assay: Inhibition of a panel of kinases (in vitro HotSpot kinase assay, 33P-ATP, 1 μM ATP); conditions: for IC50: HotSpot kinase assay, 1 μM ATP; for TEC/Btk: ratio of TEC IC50 to Btk IC50 (selectivity)
T1 sequence (P42680 1-631): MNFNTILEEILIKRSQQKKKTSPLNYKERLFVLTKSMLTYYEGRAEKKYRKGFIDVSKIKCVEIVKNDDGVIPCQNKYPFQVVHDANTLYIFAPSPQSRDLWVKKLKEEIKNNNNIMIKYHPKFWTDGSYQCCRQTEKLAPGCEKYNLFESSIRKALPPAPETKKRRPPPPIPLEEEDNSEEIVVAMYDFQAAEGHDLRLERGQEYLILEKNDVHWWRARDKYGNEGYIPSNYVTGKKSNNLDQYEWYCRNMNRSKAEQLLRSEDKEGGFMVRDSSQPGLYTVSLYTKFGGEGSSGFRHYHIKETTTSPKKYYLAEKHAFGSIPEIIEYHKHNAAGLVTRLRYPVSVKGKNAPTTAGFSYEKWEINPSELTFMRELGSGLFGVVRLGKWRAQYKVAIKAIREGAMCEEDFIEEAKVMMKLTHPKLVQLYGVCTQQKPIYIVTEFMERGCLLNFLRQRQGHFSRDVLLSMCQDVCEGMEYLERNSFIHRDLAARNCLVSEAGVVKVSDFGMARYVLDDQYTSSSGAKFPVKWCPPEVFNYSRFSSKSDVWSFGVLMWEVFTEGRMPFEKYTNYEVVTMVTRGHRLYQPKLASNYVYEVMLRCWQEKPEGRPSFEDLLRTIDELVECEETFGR
Procedure, shortened: (§1)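 Radiometric read-out: 33P transfer to a suitable substrate by each purified enzyme, ATP at 1 μM. Values are degree of inhibition.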

Btk = biological target: T2, Btk (Homo sapiens, UniProt Q06187); assay: Btk in vitro inhibitory activity (one of Method A TR-FRET, Method B electrophoretic mobility shift, Method C radiometric filter binding)
T2 construct: purified from insect cells as a full-length construct containing a N-terminal 6X-His tag; His6 (N); made in house; host or cells: insect cells (Method C)
T2 sequence (Q06187 whole entry): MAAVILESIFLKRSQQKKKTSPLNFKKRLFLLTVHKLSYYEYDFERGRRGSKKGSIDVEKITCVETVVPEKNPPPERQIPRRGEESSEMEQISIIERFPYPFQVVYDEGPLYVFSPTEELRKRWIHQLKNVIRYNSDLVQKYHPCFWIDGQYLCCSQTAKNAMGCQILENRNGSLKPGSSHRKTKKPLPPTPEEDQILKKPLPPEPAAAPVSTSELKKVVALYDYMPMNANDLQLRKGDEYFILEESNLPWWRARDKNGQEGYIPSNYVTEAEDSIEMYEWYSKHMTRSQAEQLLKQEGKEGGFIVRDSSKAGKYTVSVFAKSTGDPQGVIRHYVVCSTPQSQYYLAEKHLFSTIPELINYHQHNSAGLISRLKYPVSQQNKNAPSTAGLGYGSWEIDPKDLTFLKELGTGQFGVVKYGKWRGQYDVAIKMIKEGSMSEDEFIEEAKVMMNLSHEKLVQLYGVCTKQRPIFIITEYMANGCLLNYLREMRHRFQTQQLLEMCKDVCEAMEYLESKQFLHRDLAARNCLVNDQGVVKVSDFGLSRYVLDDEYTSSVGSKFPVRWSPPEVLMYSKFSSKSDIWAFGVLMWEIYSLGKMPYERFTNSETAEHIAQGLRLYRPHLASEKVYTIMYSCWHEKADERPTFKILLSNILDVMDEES
Procedure, shortened: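 Three alternative formats were used. A radiometric filter-binding read used 8 nM full-length His-BTK with 0.2 mg/mL poly(Glu-Tyr) 4:1 (C); microfluidic separation of 1 μM FAM-peptide by 1 nM BTK gave IC50 from 12-point curves (B); TR-FRET at Km ATP, 0.5 nM Btk, gave Ki(app)-derived IC50 (A).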

panel of kinases = biological target: T3, panel of kinases (Homo sapiens, UniProt P51813); assay: Inhibition of a panel of kinases (in vitro HotSpot kinase assay, 33P-ATP, 1 μM ATP), other kinases; conditions: BMX wild-type, read-out: BMX-WT IC50
T3 sequence (P51813 1-675): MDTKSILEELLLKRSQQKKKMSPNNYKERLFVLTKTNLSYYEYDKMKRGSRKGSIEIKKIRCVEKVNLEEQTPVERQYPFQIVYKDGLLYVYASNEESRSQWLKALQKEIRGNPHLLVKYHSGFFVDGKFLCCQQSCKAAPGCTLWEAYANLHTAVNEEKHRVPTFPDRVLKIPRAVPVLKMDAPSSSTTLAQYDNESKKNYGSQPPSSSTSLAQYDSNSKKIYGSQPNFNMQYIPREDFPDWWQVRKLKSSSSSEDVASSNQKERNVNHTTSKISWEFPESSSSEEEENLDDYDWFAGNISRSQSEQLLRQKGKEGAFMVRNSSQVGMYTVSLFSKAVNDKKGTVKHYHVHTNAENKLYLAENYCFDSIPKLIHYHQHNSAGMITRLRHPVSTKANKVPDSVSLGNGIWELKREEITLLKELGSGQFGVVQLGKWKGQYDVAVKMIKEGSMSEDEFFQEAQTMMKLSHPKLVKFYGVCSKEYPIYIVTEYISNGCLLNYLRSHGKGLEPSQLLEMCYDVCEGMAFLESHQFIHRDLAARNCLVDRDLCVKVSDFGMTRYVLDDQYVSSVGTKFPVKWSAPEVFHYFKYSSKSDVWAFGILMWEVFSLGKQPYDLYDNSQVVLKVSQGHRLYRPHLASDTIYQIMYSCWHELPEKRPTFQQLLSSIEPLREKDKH
Procedure, shortened: as §1

[1] = wild-type Btk, read-out: Btk-WT IC50
[2] = method is one of A, B or C, not stated which, read-out: IC50 values against Btk

Row | Compound | IC50 (TEC) [nM] | IC50 (Btk; [1]) [nM] | IC50 (panel of kinases) [nM] | TEC/Btk (TEC) | IC50 (Btk; [2]) [nM]
1 | CC(C)c1noc(C(=O)NCc2ccc(-c3ccnc4[nH]nc(N5CC[C@@H](N)C5)c34)cc2F)n1 [Example 181, N-[(4-{3-[(3R)-3-aminopyrrolidin-1-yl]-1H-pyrazolo[3,4-b]pyridin-4-yl}-2-fluorophenyl)methyl]-3-(propan-2-yl)-1,2,4-oxadiazole-5-carboxamide] | 1000 | 6.04 | 761 | 166 | 
2 | C=CC(=O)N[C@@H]1CCN(c2n[nH]c3nccc(-c4ccc(CNC(=O)c5ccc(C(C)(C)C)cc5)c(F)c4)c23)C1 [Example 101, 4-tert-butyl-N-[(2-fluoro-4-{3-[(3R)-3-(prop-2-enamido)pyrrolidin-1-yl]-1H-pyrazolo[3,4-b]pyridin-4-yl}phenyl)methyl]benzamide] | 96 | 0.22 | 122 | 434 | < 10
3 | CC(C)(C)c1nc(C(=O)NCc2ccc(-c3ccnc4[nH]nc(N[C@@H]5CCNC5)c34)cc2F)no1 [Compound 2, (R)-5-(tert-butyl)-N-(2-fluoro-4-(3-(pyrrolidin-3-ylamino)-1H-pyrazolo[3,4-b]pyridin-4-yl)benzyl)-1,2,4-oxadiazole-3-carboxamide] | 950 | 11.6 | 1980 | 82 | 
4 | C=CC(=O)N1CC[C@@H](Nc2n[nH]c3nccc(-c4ccc(CNC(=O)c5cc(C(C)(C)C)on5)c(F)c4)c23)C1 [Example 65, 5-tert-butyl-N-{[2-fluoro-4-(3-{[(3R)-1-(prop-2-enoyl)pyrrolidin-3-yl]amino}-1H-pyrazolo [3,4-b]pyridin-4-yl)phenyl]methyl}-1,2-oxazole-3-carboxamide] | 42 | 0.0792 | 78 | 529 | < 10
5 | CC(C)(C)c1nc(C(=O)NCc2ccc(-c3ccnc4[nH]nc(N[C@@H]5CCNC5)c34)c(F)c2)no1 [Example 129, 5-tert-butyl-N-{[3-fluoro-4-(3-{[(3R)-pyrrolidin-3-yl]amino}-1H-pyrazolo[3,4-b]pyridin-4-yl)phenyl]methyl}-1,2,4-oxadiazole-3-carboxamide] | > 10000 | 85.9 | > 10000 | >100 | 
6 | C=CC(=O)N1CC(Nc2n[nH]c3nccc(-c4ccc(CNC(=O)c5noc(C(C)(C)C)n5)c(F)c4)c23)C1 [Example 107, 5-tert-butyl-N-{[2-fluoro-4-(3-{[1-(prop-2-enoyl)azetidin-3-yl]amino}-1H-pyrazolo[3,4-b]pyridin-4-yl)phenyl]methyl}-1,2,4-oxadiazole-3-carboxamide] | > 10000 | 528 | > 10000 | >100 | 

Second part, the molecule after the results:

Row | IC50 (TEC) [nM] | IC50 (Btk; [1]) [nM] | IC50 (panel of kinases) [nM] | TEC/Btk (TEC) | IC50 (Btk; [2]) [nM] | Compound
7 | 6060 | 382 | 3360 |  |  | C[C@@H](NC(=O)c1cc(C(C)(C)O)on1)c1ccc(-c2ccnc3[nH]nc(NC4CCCC4)c23)cc1 [Example 397, N-[(1R)-1-{4-[3-(cyclopentylamino)-1H-pyrazolo[3,4-b]pyridin-4-yl]phenyl}ethyl]-5-(2-hydroxypropan-2-yl)-1,2-oxazole-3-carboxamide]
8 | 5380 | 11.8 | 2050 |  |  | CC(=O)N[C@@H]1CCN(c2n[nH]c3nccc(-c4ccc(CNC(=O)c5nc6c(s5)CCCC6)c(F)c4)c23)C1 [Example 356, N-[(4-{3-[(3R)-3-acetamidopyrrolidin-1-yl]-1H-pyrazolo[3,4-b]pyridin-4-yl}-2-fluorophenyl)methyl]-4,5,6,7-tetrahydro-1,3-benzothiazole-2-carboxamide]
9 | 146 | 1.23 | 128 |  |  | C=CC(=O)N1CC[C@@H](Nc2n[nH]c3nccc(-c4ccc(CNC(=O)c5ccc6c(c5)OCCO6)c(F)c4)c23)C1 [Example 374, N-{[2-fluoro-4-(3-{[(3R)-1-(prop-2-enoyl)pyrrolidin-3-yl]amino}-1H-pyrazolo[3,4-b]pyridin-4-yl)phenyl]methyl}-2,3-dihydro-1,4-benzodioxine-6-carboxamide]
10 | 802 | 0.267 | 1520 | 3004 |  | C[C@@H](NC(=O)c1nc(C(C)(C)C)no1)c1ccc(-c2ccnc3[nH]nc(N4CCC(N)CC4)c23)cc1F [Example 188, N-[(1R)-1-{4-[3-(4-aminopiperidin-1-yl)-1H-pyrazolo[3,4-b]pyridin-4-yl]-2-fluorophenyl}ethyl]-3-tert-butyl-1,2,4-oxadiazole-5-carboxamide]
11 | 7070 | 21.9 | 1320 |  |  | N[C@@H]1CCN(c2n[nH]c3nccc(-c4ccc(CNC(=O)c5nc6c(s5)CCCC6)c(F)c4)c23)C1 [Example 366, N-[(4-{3-[(3R)-3-aminopyrrolidin-1-yl]-1H-pyrazolo[3,4-b]pyridin-4-yl}-2-fluorophenyl)methyl]-4,5,6,7-tetrahydro-1,3-benzothiazole-2-carboxamide]
12 | 662 | 336 | 101 |  |  | C=CC(=O)N1CC[C@@H](Nc2n[nH]c3nccc(-c4ccc(CNC(=O)c5ccc6oc(C)nc6c5)c(F)c4)c23)C1 [Example 380, (R)-N-{[2-fluoro-4-(3-{[1-(prop-2-enoyl)pyrrolidin-3-yl]amino}-1H-pyrazolo[3,4-b]pyridin-4-yl)phenyl]methyl}-2-methyl-1,3-benzoxazole-5-carboxamide]
13 | 67.8 | 0.244 | 35 |  |  | C=CC(=O)N[C@@H]1CCN(c2n[nH]c3nccc(-c4ccc([C@@H](C)NC(=O)c5cc(C(C)(C)O)on5)c(F)c4)c23)C1 [Example 353, N-{(1R)-1-[2-fluoro-4-(3-{(3R)-3-[(prop-2-enoyl)amino]pyrrolidin-1-yl}-1H-pyrazolo[3,4-b]pyridin-4-yl)phenyl]ethyl}-5-(2-hydroxypropan-2-yl)-1,2-oxazole-3-carboxamide]
14 | 205 | 0.458 | 704 | 448 |  | C[C@H]1CC[C@@H](Nc2n[nH]c3nccc(-c4ccc(CNC(=O)c5noc(C(C)(C)C)n5)c(F)c4)c23)CN1C(=O)CO [Example 227, 5-tert-butyl-N-{[2-fluoro-4-(3-{[(3R,6S)-1-(hydroxyacetyl)-6-methylpiperidin-3-yl]amino}-1H-pyrazolo[3,4-b]pyridin-4-yl)phenyl]methyl}-1,2,4-oxadiazole-3-carboxamide]
15 | 30.5 | 0.0597 | 36 |  |  | C=CC(=O)N1CC[C@@H](Nc2n[nH]c3nccc(-c4ccc([C@@H](C)NC(=O)c5noc(C(C)(C)C)n5)c(F)c4)c23)C1 [Example 372, 5-tert-butyl-N-{(1R)-1-[2-fluoro-4-(3-{[(3R)-1-(prop-2-enoyl)pyrrolidin-3-yl]amino}-1H-pyrazolo[3,4-b]pyridin-4-yl)phenyl]ethyl}-1,2,4-oxadiazole-3-carboxamide]
16 | 4.92 | 0.0568 | 2.98 | 87 |  | C=CC(=O)N1CC=C(c2n[nH]c3nccc(-c4ccc(CNC(=O)c5noc(C(C)(C)C)n5)c(F)c4)c23)C1 [Example 281, 5-tert-butyl-N-[(2-fluoro-4-{3-[1-(prop-2-enoyl)-2,5-dihydro-1H-pyrrol-3-yl]-1H-pyrazolo[3,4-b]pyridin-4-yl}phenyl)methyl]-1,2,4-oxadiazole-3-carboxamide]
